Data on three compounds can be found in publication PMC10709440, “High-throughput ligand profile characterization in novel cell lines expressing seven heterologous insect olfactory receptors for the detection of volatile plant biomarkers” (Scientific Reports, 2023).

Like-named read-outs stand apart in the source and are kept apart here.

Assay [1] concerns the target T1, Drosophila OR47a (Drosophila melanogaster, UniProt P81921).
T1 construct: expressed in transfected cells
T1 sequence (P81921 1-385): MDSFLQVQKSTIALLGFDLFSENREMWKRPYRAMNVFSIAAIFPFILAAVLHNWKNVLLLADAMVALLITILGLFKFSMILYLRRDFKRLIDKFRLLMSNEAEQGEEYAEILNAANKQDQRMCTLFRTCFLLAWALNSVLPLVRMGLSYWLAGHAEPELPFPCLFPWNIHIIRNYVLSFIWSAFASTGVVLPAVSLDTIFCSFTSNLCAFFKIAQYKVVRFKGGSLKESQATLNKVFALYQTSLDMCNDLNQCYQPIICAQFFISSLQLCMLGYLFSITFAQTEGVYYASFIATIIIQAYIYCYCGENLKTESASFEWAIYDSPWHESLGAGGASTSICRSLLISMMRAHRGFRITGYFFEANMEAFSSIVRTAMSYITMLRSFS
T1 sequence (Q9VNB5 1-486 partner): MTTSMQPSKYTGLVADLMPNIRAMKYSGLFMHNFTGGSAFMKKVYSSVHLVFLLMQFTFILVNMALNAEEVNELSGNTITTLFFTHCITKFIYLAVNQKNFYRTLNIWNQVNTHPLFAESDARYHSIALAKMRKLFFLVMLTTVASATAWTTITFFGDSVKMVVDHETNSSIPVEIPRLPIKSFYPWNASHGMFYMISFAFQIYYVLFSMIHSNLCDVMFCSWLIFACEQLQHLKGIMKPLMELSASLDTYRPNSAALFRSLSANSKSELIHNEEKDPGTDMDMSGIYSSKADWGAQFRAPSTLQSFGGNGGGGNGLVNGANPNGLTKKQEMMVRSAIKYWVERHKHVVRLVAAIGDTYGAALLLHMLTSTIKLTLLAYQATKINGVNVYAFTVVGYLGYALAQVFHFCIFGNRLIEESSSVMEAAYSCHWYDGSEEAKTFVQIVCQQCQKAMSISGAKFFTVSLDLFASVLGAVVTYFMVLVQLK
Nature of the assay: Calcium ion fluorescence (GCaMP6) assay, OR47a stable HEK293 cell line. It is filed as cell-based. As to conditions: for Average response: OR47a cell line, mean of biological replicates. The gist of the method: (§1)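 Responses are VUAA1-normalized ΔF: each VOC-evoked calcium signal, (FMAX−F0)/F0 over 30 s after injection, divided by the same line's mean 50 µM VUAA1 response. Cells were doxycycline-induced HEK293 with GCaMP6 and the cognate Drosophila OR, in HEPES buffer pH 7.3; ligands tested 0.01–100 μM.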

The target in assay [2] is T2, Drosophila OR10a (Drosophila melanogaster, UniProt Q9VYZ1).
T2 construct: expressed in transfected cells
T2 sequence (Q9VYZ1 1-406): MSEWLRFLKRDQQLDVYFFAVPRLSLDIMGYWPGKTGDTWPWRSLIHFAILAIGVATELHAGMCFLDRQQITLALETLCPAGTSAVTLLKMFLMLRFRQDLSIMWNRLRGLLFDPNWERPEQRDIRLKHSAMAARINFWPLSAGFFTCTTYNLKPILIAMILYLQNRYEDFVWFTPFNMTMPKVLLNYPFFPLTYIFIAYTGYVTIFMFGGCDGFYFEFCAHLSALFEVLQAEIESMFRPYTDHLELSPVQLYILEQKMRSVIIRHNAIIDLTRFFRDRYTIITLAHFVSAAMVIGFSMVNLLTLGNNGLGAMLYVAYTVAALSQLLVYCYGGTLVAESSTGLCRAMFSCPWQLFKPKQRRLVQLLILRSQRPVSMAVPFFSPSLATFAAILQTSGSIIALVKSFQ
T2 sequence (Q9VNB5 1-486 partner): T1 sequence (Q9VNB5 1-486 partner)
In words: Calcium ion fluorescence (GCaMP6) assay, OR10a stable HEK293 cell line. Type of assay: cell-based. The gist of the method: as §1

[3] abbreviates: HEK293, read-out: OR47a response (VUAA1-normalized response).
Setting [4] is: concentration 1, normalized fluorescence change, values below 0.05 threshold given as 0.
The mark [5] stands for this setting: concentration 10, normalized fluorescence change, values below 0.05 threshold given as 0.
Setting [6] is: concentration 100, normalized fluorescence change, values below 0.05 threshold given as 0.
[7] abbreviates: HEK293, 1 μM VOC, 50 μM VUAA1 = 1, responses not exceeding 0.05 considered 0, read-out: OR10a Average response (VUAA1-normalized).
Setting [8] is: HEK293, 10 μM VOC, 50 μM VUAA1 = 1, responses not exceeding 0.05 considered 0, read-out: OR10a Average response (VUAA1-normalized).
Setting [9] is: HEK293, 100 μM VOC, 50 μM VUAA1 = 1, responses not exceeding 0.05 considered 0, read-out: OR10a Average response (VUAA1-normalized).
Setting [10] is: HEK293, read-out: OR10a response (VUAA1-normalized response), VOC concentration 1 μM.
[11] abbreviates: HEK293, read-out: OR10a response (VUAA1-normalized response), VOC concentration 10 μM.
The mark [12] stands for this setting: HEK293, read-out: OR10a response (VUAA1-normalized response), VOC concentration 100 μM.
Setting [13] is: HEK293, read-out: OR47a Average response (VUAA1-normalized).
[14] abbreviates: ligand concentration 1 (unit not given), threshold 0.05, below shown as 0.
Setting [15] is: ligand concentration 10 (unit not given), threshold 0.05, below shown as 0.
Setting [16] is: ligand concentration 100 (unit not given), threshold 0.05, below shown as 0.

Regarding `CCCCCO` [1-pentanol], the activation at 1 µM in assay [1] (setting [3]), in assay [2] (setting [7]) and in assay [2] (setting [10]) was 0% each time. The activation at 10 µM in assay [1] (setting [3]), in assay [2] (setting [8]) and in assay [2] (setting [11]) was 0% each time. The activation at 100 µM in assay [1] (setting [3]), in assay [2] (setting [9]) and in assay [2] (setting [12]) was 0% each time. Besides, the Average response in assay [1] (odorant cc. 1 µM), in assay [1] (odorant cc. 10 µM) and in assay [1] (odorant cc. 100 µM) was 0.00 each time. The “DF norm AVERAGE OR47a” value in assay [1] (setting [4]), in assay [1] (setting [5]) and in assay [1] (setting [6]) was 0 in each case. Moreover, in assay [2], the “DF norm AVERAGE OR10a” value is 0.

As for `C=CC(O)CCCCC` (centres unmarked) [1-octen-3-ol], the activation at 1 µM in assay [1] (setting [13]), in assay [1] (setting [3]), in assay [2] (setting [7]) and in assay [2] (setting [10]) was 0% each time. Moreover, the activation at 10 µM in assay [1] (setting [13]) is 3%; in assay [1] (setting [3]) it was 0%; in assay [2] (setting [8]), 2.34%; in assay [2] (setting [11]), 0%. Also, the activation at 100 µM in assay [1] (setting [13]) came out at 14%; in assay [1] (setting [3]) it was 14%; in assay [2] (setting [9]), 4.52%; in assay [2] (setting [12]) it was 0%. For the same compound, the values for the Average response in assay [1] (odorant cc. 1 µM), in assay [1] (odorant cc. 10 µM) and in assay [1] (odorant cc. 100 µM) were 0.00, 0.0268 and 0.14, respectively. Moreover, the results for the “DF norm AVERAGE OR47a” value in assay [1] (setting [4]), in assay [1] (setting [5]) and in assay [1] (setting [6]) were 0, 0 and 0.1389, respectively. In assay [2], the “DF norm AVERAGE OR10a” value is 0.

Regarding `CC1=CCC2CC1C2(C)C` (stereo not drawn) [alpha-pinene], the activation at 1 µM in assay [1] (setting [3]) stood at 0%; in assay [2] (HEK293, read-out: OR10a Average response (VUAA1-normalized), 1 μM VOC, 50 μM VUAA1 = 1, responses not exceeding 0.05 considered 0), 5%; in assay [2] (setting [10]), 0%. For the same compound, the activation at 10 µM in assay [1] (setting [3]) worked out at 0%; in assay [2] (HEK293, read-out: OR10a Average response (VUAA1-normalized), 10 μM VOC, 50 μM VUAA1 = 1, responses not exceeding 0.05 considered 0), 0%; in assay [2] (setting [11]), 0%. The activation at 100 µM in assay [1] (setting [3]) stood at 0%; in assay [2] (HEK293, read-out: OR10a Average response (VUAA1-normalized), 100 μM VOC, 50 μM VUAA1 = 1, responses not exceeding 0.05 considered 0) it was 7.44%; in assay [2] (setting [12]), 7.44%. The Average response is given as 0.04 in assay [1] (odorant cc. 1 µM), 0.00 in assay [1] (odorant cc. 10 µM) and 0.0468 in assay [1] (odorant cc. 100 µM). Besides, the “DF norm AVERAGE OR47a” value in assay [1] (setting [14]), in assay [1] (setting [15]) and in assay [1] (setting [16]) was 0 each time. In addition, the entries for the “DF norm AVERAGE OR10a” value in assay [2] (setting [14]), in assay [2] (setting [15]) and in assay [2] (setting [16]) were 0, 0 and 0.07438, respectively.
